From US20150105252A1, “SUBSTITUTED PYRAZOLES AS HERBICIDES” (E I DU PONT DE NEMOURS AND COMPANY, priority 2013, published 2015)

Assays:
[1] = test system: soybean; experiment: Test F preemergence; format: in vivo, Glycine max
Summary of the method: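 Percent-control style visual scores, from 0 (no effect) to 100 (complete control), were given relative to controls. Treatment timing: preemergence on silt loam plantings, or postemergence at 1- to 4-leaf stage. Evaluation came 14 to 21 days after spraying, greenhouse conditions.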

[2] = test system: Surinam grass; experiment: Test F preemergence; format: in vivo, Brachiaria decumbens
Description: (§1) Seeds of plant species selected from corn (Zea mays), soybean (Glycine max), velvetleaf (Abutilon theophrasti), lambsquarters (Chenopodium album), wild poinsettia (Euphorbia heterophylla), pigweed, palmer (palmer pigweed, Amaranthus palmeri), common waterhemp (Amaranthus rudis), surinam grass (Brachiaria decumbens), large crabgrass (Digitaria sanguinalis), crabgrass, Brazil (Brazilian crabgrass, Digitaria horizontalis), fall panicum (Panicum dichotomiflorum), giant foxtail (Setaria faberii), green foxtail (Setaria viridis), goosegrass (Eleusine indica), johnsongrass (Sorghum halepense), common ragweed (Ambrosia elation), barnyardgrass (Echinochloa crus-galli), southern sandbur (Cenchrus echinatus), arrowleaf sida (Sida rhombifolia), Italian ryegrass (Lolium multiflorum), dayflower, VA (Virginia (VA) dayflower, Commelina virginica), field bindweed (Convolvulus arvensis), cocklebur (common cocklebur, Xanthium strumarium), morningglory (Ipomoea coccinea), nightshade (eastern black nightshade, Solanum ptycanthum), kochia (Kochia scoparia), yellow nutsedge (Cyperus esculentus), and hairy beggarticks (Bidens pilosa), were planted into a silt loam soil and treated preemergence with test chemicals formulated in a non-phytotoxic solvent mixture which included a surfactant.
(§2) At the same time, plants from these crop and weed species and also horseweed (Canada horseweed, Conyza canadensis), smartweed (ladysthumb smartweed, Polygonum persicaria), waterhemp_RES1, (ALS & Triazine resistant common waterhemp, Amaranthus rudis), and waterhemp_RES2, (ALS & HPPD resistant common waterhemp, Amaranthus rudis) were treated with postemergence applications of test chemicals formulated in the same manner. Plants ranged in height from 2 to 18 cm for postemergence treatments (1- to 4-leaf stage). Treated plants and controls were maintained in a greenhouse for 14 to 21 days, after which time all species were compared to controls and visually evaluated. Plant response ratings, summarized in Table F, are based on a scale of 0 to 100 where 0 is no effect and 100 is complete control. A dash (-) response means no test result.

[3] = test system: lambsquarters; experiment: Test D postemergence; format: in vivo, Chenopodium album; conditions: scale 0 to 100
Description: (§3) Seeds of plant species selected from bluegrass (annual bluegrass, Poa annua), blackgrass (Alopecurus myosuroides), canarygrass (littleseed canarygrass, Phalaris minor), chickweed (common chickweed, Stellaria media), galium (catchweed bedstraw, Galium aparine), bromegrass, downy (downy bromegrass, Bromus tectorum), field poppy (Papaver rhoeas), field violet (Viola arvensis), foxtail, green (green foxtail, Setaria viridis), deadnettle (henbit deadnettle, Lamium amplexicaule), ryegrass, Italian (Italian ryegrass, Lolium multiflorum), kochia (Kochia scoparia), lambsquarters (Chenopodium album), oilseed rape (Brassica napus), pigweed (redroot pigweed, Amaranthus retroflexus), chamomile (scentless chamomile, Matricaria inodora), speedwell (bird's-eye speedwell, Veronica persica), barley, spring (spring barley, Hordeum vulgare), wheat, spring (spring wheat, Triticum aestivum), buckwheat, wild (wild buckwheat, Polygonum convolvulus), mustard, wild (wild mustard, Sinapis arvensis), oat, wild (wild oat, Avena fatua), radish, wild (wild radish, Raphanus raphanistrum), windgrass (Apera spica-venti), Russian thistle (Salsola kali), barley, winter (winter barley, Hordeum vulgare), and wheat, winter (winter wheat, Triticum aestivum) were planted into a silt loam soil and treated preemergence with test chemicals formulated in a non-phytotoxic solvent mixture which included a surfactant.
(§4) At the same time, these species were planted in pots containing Redi-Earth® planting medium (Scotts Company, 14111 Scottslawn Road, Marysville, Ohio 43041) comprising spaghnum peat moss, vermiculite, wetting agent and starter nutrients and treated with postemergence applications of the test chemicals formulated in the same manner. Plants ranged in height from 2 to 18 cm (1- to 4-leaf stage). Treated plants and controls were maintained in a controlled growth environment for 14 to 21 days after which time all species were compared to controls and visually evaluated. Plant response ratings, summarized in Table D, are based on a scale of 0 to 100 where 0 is no effect and 100 is complete control. A dash (-) response means no test result.

[4] = test system: galium; experiment: Test D preemergence; format: in vivo, Galium aparine; conditions: scale 0 to 100
Summary of the method: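 Whole-plant herbicidal activity; pre- and postemergence sprays. Soil: silt loam (pre); peat/vermiculite medium (post, 1–4 leaf). Assessment: 14–21 days, visual, 0 = no effect, 100 = complete control.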

[5] = test system: foxtail, green; experiment: Test D postemergence; format: in vivo, Setaria viridis; conditions: scale 0 to 100
Description: as §3, §4

[6] = test system: corn; experiment: Test F preemergence; format: in vivo, Zea mays
Description: as §1, §2

[7] = test system: crabgrass, naked; experiment: Test E preemergence; format: in vivo, Digitaria nuda; conditions: 21 days, scale 0 to 100
Description: (§5) Seeds of plant species selected from bermudagrass (Cynodon dactylon), Surinam grass (Brachiaria decumbens), crabgrass, large (large crabgrass, Digitaria sanguinalis), crabgrass, naked (naked crabgrass, Digitaria nuda), foxtail, green (green foxtail, Setaria viridis), johnsongrass (Sorghum halepense), kochia (Kochia scoparia), morningglory (pitted morningglory, Ipomoea lacunosa), nutsedge, purple (purple nutsedge, Cyperus rotundus), ragweed (common ragweed, Ambrosia elation), mustard, black (black mustard, Brassica nigra), guineagrass (Panicum maximum), dallisgrass (Paspalum dilatatum), barnyardgrass (Echinochloa crus-galli), sandbur (southern sandbur, Cenchrus echinatus), sowthistle (common sowthistle, Sonchus oleraceous), ryegrass, Italian (Italian ryegrass, Lolium multiflorum), signalgrass (broadleaf signalgrass, Brachiaria platyphylla), dayflower, VA (Virginia (VA) dayflower, Commelina virginica), bluegrass (annual bluegrass, Poa annua), quackgrass (Elytrigia repens), mallow (common mallow, Malva sylvestris), buckwheat, wild (wild buckwheat, Polygonum convolvulus), leafy spurge (Euphorbia esula), common chickweed (Stellaria media), wild poinsettia (Euphorbia heterophylla), pigweed, palmer (palmer pigweed, Amaranthus palmeri), and pigweed (redroot pigweed, Amaranthus retroflexus) were planted into a blend of loam soil and sand and treated preemergence with test chemicals formulated in a non-phytotoxic solvent mixture which included a surfactant.
(§6) Treated plants and controls were maintained in a greenhouse for 21 days, after which time all species were compared to controls and visually evaluated. Plant response ratings, summarized in Table E, are based on a scale of 0 to 100 where 0 is no effect and 100 is complete control. A dash (-) response means no test result.

[8] = test system: common chickweed; experiment: Test E preemergence; format: in vivo, Stellaria media; conditions: 21 days, scale 0 to 100
Description: as §5, §6

[9] = Preemergence, 31 g ai/ha, scale 0 to 100
[10] = Preemergence, 62 g ai/ha, scale 0 to 100
[11] = Preemergence, 125 g ai/ha, scale 0 to 100
[12] = preemergence, 8 g ai/ha, scale 0 to 100, 100 is complete control
[13] = preemergence, 16 g ai/ha, scale 0 to 100, 100 is complete control

Row | Compound | Plant response rating, Soybean [1, 9] | Plant response rating, Soybean [1, 10] | Plant response rating, Soybean [1, 11] | Plant response rating, Soybean [1, 12] | Plant response rating, Soybean [1, 13] | Plant response rating, Surinam Grass [2, 9] | Plant response rating, Surinam Grass [2, 10] | Plant response rating, Surinam Grass [2, 11] | Plant response rating, Surinam Grass [2, 12] | Plant response rating, Surinam Grass [2, 13] | Plant response rating, Corn [6, 9] | Plant response rating, Corn [6, 10] | Plant response rating, Corn [6, 11] | Plant response rating, Corn [6, 12] | Plant response rating, Corn [6, 13] | Plant response rating, Crabgrass, Naked ([7]; 31 g ai/ha) | Plant response rating, Crabgrass, Naked ([7]; 62 g ai/ha) | Plant response rating, Crabgrass, Naked ([7]; 125 g ai/ha) | Plant response rating, Crabgrass, Naked ([7]; 250 g ai/ha) | further results
1 | CCc1cc(C(=O)NCC(F)(F)F)nn1Cc1ccnc(C(F)(F)F)c1 [Compound 78, 5-ethyl-N-(2,2,2-trifluoroethyl)-1-[[(2-trifluoromethyl)-4-pyridinyl]methyl]-1H-pyrazole-3-carboxamide] | 95 | 80 | 95 | 0 | 0 | 50 | 75 | 100 | 20 | 20 | 20 | 65 | 70 | 0 | 10 | 95 | 95 | 100 | 100 | Lambsquarters plant response rating ([3]; Postemergence, 31 g ai/ha): 20; Lambsquarters plant response rating ([3]; Postemergence, 125 g ai/ha): 80; Lambsquarters plant response rating ([3]; Postemergence, 250 g ai/ha): 80; Lambsquarters plant response rating ([3]; postemergence, 62 g ai/ha): 60; Plant response rating, Galium ([4]; 31 g ai/ha): 95; Plant response rating, Galium ([4]; 62 g ai/ha): 100; Plant response rating, Galium ([4]; 125 g ai/ha): 100; Plant response rating, Galium ([4]; 250 g ai/ha): 100; Foxtail, Green plant response rating ([5]; Postemergence, 31 g ai/ha): 25; Foxtail, Green plant response rating ([5]; Postemergence, 125 g ai/ha): 70; Foxtail, Green plant response rating ([5]; Postemergence, 250 g ai/ha): 80; Foxtail, Green plant response rating ([5]; postemergence, 62 g ai/ha): 60
2 | CCOc1cc(C(=O)NCC(F)(F)F)nn1Cc1ccnc(C(F)(F)F)c1 [Compound 104] | 25 | 70 | 90 | 0 | 0 | 35 | 75 | 80 | 0 | 10 | 30 | 50 | 60 | 0 | 0 | 100 | 100 | 100 | 100 | Plant response rating, Common Chickweed ([8]; 16 g ai/ha): 100; Plant response rating, Common Chickweed ([8]; 31 g ai/ha): 100; Plant response rating, Common Chickweed ([8]; 62 g ai/ha): 100; Plant response rating, Common Chickweed ([8]; 125 g ai/ha): 100; Plant response rating, Common Chickweed ([8]; 250 g ai/ha): 100; Plant response rating, Crabgrass, Naked ([7]; 16 g ai/ha): 95
